According to patent US11266643B2, “Triaryl compounds for treatment of PD-L1 diseases” (CHEMOCENTRYX, INC., priority 2019, dated 2022):

Molecular target: human PD-L1 (Homo sapiens (Human), UniProt Q9NZQ7)
Assay: Enzyme-Linked Immunosorbent Assay (ELISA), PD-1/PD-L1 binding
Conditions: human PD-1/PD-L1 ELISA, plates coated with human PD-L1
Description: 96 Well plates were coated with […] of human PD-L1 (obtained from R&D) in PBS overnight at 4° C. The wells were then blocked with 2% BSA in PBS (W/V) with 0.05% TWEEN-20 for 1 hour at 37° C. The plates were washed 3 times with PBS/0.05% TWEEN-20 and the compounds were serial diluted (1:5) in dilution medium and added to the ELISA plates. Human PD-1 […] 0.31 μg/mL (ACRO Biosystems) were added and incubated for 1 hour at 37° C. then washed 3 times with PBS/0.05% TWEEN-20. A second block was performed with 2% BSA in PBS (W/V)/0.05% TWEEN-20 for 10 min at 37° C. and the plates were washed 3 times with PBS/0.05% TWEEN-20. Streptavidin-HRP was added for 1 hour at 37° C. then the plates were washed 3 times with PBS/0.05% TWEEN-20. TMB substrate was added and reacted for 20 min at 37° C. A stop solution (2 N aqueous H2SO4) was added. The absorbance was read at 450 nm using a micro-plate spectrophotometer.
Using the methods described in the Examples above, the compounds in Table 2 were prepared & tested for biological activity using the ELISA method described above.

Chain of human PD-L1 (Q9NZQ7 19-239): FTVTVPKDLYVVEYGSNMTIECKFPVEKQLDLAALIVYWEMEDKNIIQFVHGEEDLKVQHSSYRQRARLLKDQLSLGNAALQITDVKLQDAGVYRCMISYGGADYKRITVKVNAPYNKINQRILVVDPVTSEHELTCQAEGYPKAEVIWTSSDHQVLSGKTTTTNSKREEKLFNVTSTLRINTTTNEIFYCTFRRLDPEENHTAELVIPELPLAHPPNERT

Structure (SMILES)	IC50 [nM]
COc1cc(-c2cccc(-c3cccc(NC(=O)c4cn(C)c(=O)n(C)c4=O)c3C)c2Cl)cc(F)c1CN[C@H]1CCOC[C@@H]1O (racemic) [Example 1.011]	< 10
COc1cc(-c2cccc(-c3cccc(NC(=O)c4cn(C)c(=O)n(C)c4=O)c3C)c2C)cc(F)c1CN[C@H]1CCOC[C@@H]1O (racemic) [Example 1.013]	< 10
COc1cc(-c2cccc(-c3cccc(NC(=O)c4cncn(C)c4=O)c3C)c2C)cc(F)c1CN[C@@H]1CC[C@H]1O (racemic) [Example 1.163]	< 10
COc1cc(-c2cccc(-c3cccc(NC(=O)c4cn(C)c(=O)n(C)c4=O)c3C)c2C)cc(F)c1CN[C@H]1COCC[C@@H]1O [Example 1.001]	< 10
COc1cc(-c2cccc(-c3cccc(NC(=O)c4cn(C)c(=O)n(C)c4=O)c3C)c2C)cc(F)c1CN[C@@H]1COCC[C@H]1O [Example 1.002]	< 10
COc1cc(-c2cccc(-c3cccc(NC(=O)c4cn(C)c(=O)n(C)c4=O)c3C)c2F)cc(F)c1CN[C@@H]1CCC(=O)NC1 [Example 1.004]	< 10
COc1cc(-c2cccc(-c3cccc(NC(=O)c4cn(C)c(=O)n(C)c4=O)c3C)c2F)cc(F)c1CN[C@H]1CCC(=O)NC1 [Example 1.005]	< 10
COc1cc(-c2cccc(-c3cccc(NC(=O)c4cn(C)c(=O)n(C)c4=O)c3Cl)c2Cl)cc(F)c1CN[C@@H]1CCOC[C@H]1O [Example 1.006]	< 10
COc1cc(-c2cccc(-c3cccc(NC(=O)c4cn(C)c(=O)n(C)c4=O)c3Cl)c2Cl)cc(F)c1CN[C@H]1CCC(=O)NC1 [Example 1.007]	< 10
COc1cc(-c2cccc(-c3cccc(NC(=O)c4cn(C)c(=O)n(C)c4=O)c3Cl)c2Cl)cc(F)c1CN[C@H]1CCOC[C@H]1O [Example 1.008]	< 10
COc1cc(-c2cccc(-c3cccc(NC(=O)c4cn(C)c(=O)n(C)c4=O)c3Cl)c2C)cc(F)c1CN[C@@H]1CCC(=O)NC1 [Example 1.009]	< 10
COc1cc(-c2cccc(-c3cccc(NC(=O)c4cn(C)c(=O)n(C)c4=O)c3Cl)c2C)cc(F)c1CN[C@@H]1CCOC[C@@H]1O [Example 1.010]	< 10
COc1cc(-c2cccc(-c3cccc(NC(=O)c4cn(C)c(=O)n(C)c4=O)c3C)c2C)cc(F)c1CN[C@@H]1CCOC[C@H]1O [Example 1.012]	< 10
COc1cc(-c2cccc(-c3cccc(NC(=O)c4cn(C)c(=O)n(C)c4=O)c3C)c2F)cc(F)c1CN[C@@H]1CCOC[C@@H]1O [Example 1.016]	< 10
COc1cc(-c2cccc(-c3cccc(NC(=O)c4cn(C)c(=O)n(C)c4=O)c3C)c2Cl)cc(F)c1CN[C@@H]1CCOC[C@@H]1O [Example 1.017]	< 10
COc1cc(-c2cccc(-c3cccc(NC(=O)c4cn(C)c(=O)n(C)c4=O)c3C)c2Cl)cc(F)c1CN[C@H]1CCC(=O)NC1 [Example 1.018]	< 10
COc1cc(-c2cccc(-c3cccc(Nc4nccc5nccnc45)c3Cl)c2C)cc(F)c1CNC[C@@H]1CCC(=O)N1 [Example 1.019]	< 10
COc1cc(-c2cccc(-c3cccc(NC(=O)c4cn(C)c(=O)n(C)c4=O)c3C)c2F)cc(F)c1CN[C@@H]1CNC(=O)C1 [Example 1.020]	< 10
COc1cc(-c2cccc(-c3cccc(NC(=O)c4cn(C)c(=O)n(C)c4=O)c3C)c2F)cc(F)c1CNC[C@@H]1CCC(=O)N1 [Example 1.021]	< 10
COc1cc(-c2cccc(-c3cccc(Nc4nccc5nccnc45)c3Cl)c2C)cc(F)c1CNCC(C)(C)C(N)=O [Example 1.022]	10 to 1000
COc1cc(-c2cccc(-c3cccc(Nc4nccc5nccnc45)c3Cl)c2C)cc(F)c1CN[C@@H]1CNC(=O)C1 [Example 1.023]	10 to 1000
COc1cc(-c2cccc(-c3cccc(Nc4nccc5nccnc45)c3C)c2Cl)cc(F)c1CN[C@@H]1CNC(=O)C1 [Example 1.024]	< 10

Structure (SMILES)	IC50 [nM]
COc1cc(-c2cccc(-c3cccc(NC(=O)c4cn(C)c(=O)n(C)c4=O)c3Cl)c2C)cc(F)c1CN[C@H]1CCC(=O)NC1 [Example 1.026]	< 10
COc1cc(-c2cccc(-c3cccc(Nc4nccc5nccnc45)c3C)c2Cl)cc(F)c1CNC[C@@H]1CCC(=O)N1 [Example 1.027]	< 10
COc1cc(-c2cccc(-c3cccc(Nc4nccc5nccnc45)c3C)c2F)cc(F)c1CNC[C@@H]1CCC(=O)N1 [Example 1.028]	10 to 1000
COc1cc(-c2cccc(-c3cccc(Nc4nccc5nccnc45)c3C)c2F)cc(F)c1CNCC(C)(C)C(N)=O [Example 1.029]	10 to 1000
COc1cc(-c2cccc(-c3cccc(NC(=O)c4cn(C)c(=O)n(C)c4=O)c3Cl)c2C)cc(F)c1CNC[C@@H]1CCC(=O)N1 [Example 1.030]	< 10
COc1cc(-c2cccc(-c3cccc(NC(=O)c4cn(C)c(=O)n(C)c4=O)c3Cl)c2Cl)cc(F)c1CNC[C@@H]1CCC(=O)N1 [Example 1.031]	< 10
COc1cc(-c2cccc(-c3cccc(NC(=O)c4cn(C)c(=O)n(C)c4=O)c3Cl)c2C)cc(F)c1CNCC(C)(C)C(N)=O [Example 1.032]	< 10
COc1cc(-c2cccc(-c3cccc(NC(=O)c4cn(C)c(=O)n(C)c4=O)c3C)c2F)cc(F)c1CNCC(C)(C)C(N)=O [Example 1.033]	< 10
COc1cc(-c2cccc(-c3cccc(NC(=O)c4cn(C)c(=O)n(C)c4=O)c3C)c2Cl)cc(F)c1CNCC(C)(C)C(N)=O [Example 1.034]	< 10
COc1cc(-c2cccc(-c3cccc(NC(=O)c4cn(C)c(=O)n(C)c4=O)c3C)c2Cl)cc(F)c1CN[C@@H]1CNC(=O)C1 [Example 1.035]	< 10
COc1cc(-c2cccc(-c3cccc(NC(=O)c4cn(C)c(=O)n(C)c4=O)c3C)c2Cl)cc(F)c1CNC[C@@H]1CCC(=O)N1 [Example 1.036]	< 10
COc1cc(-c2cccc(-c3cccc(NC(=O)c4cn(C)c(=O)n(C)c4=O)c3F)c2C)cc(F)c1CNC[C@@H]1CCC(=O)N1 [Example 1.037]	< 10
COc1cc(-c2cccc(-c3cccc(NC(=O)c4cn(C)c(=O)n(C)c4=O)c3C)c2C)cc(F)c1CN[C@@H]1CCOC1 [Example 1.038]	< 10
COc1cc(-c2cccc(-c3cccc(NC(=O)c4cn(C)c(=O)n(C)c4=O)c3C)c2C)cc(F)c1CN[C@H]1CCOC1 [Example 1.039]	< 10
COc1cc(-c2cccc(-c3cccc(Nc4nccc5nccnc45)c3C)c2C)cc(F)c1CN[C@@H]1CCOC[C@@H]1O [Example 1.040]	< 10
COc1cc(-c2cccc(-c3cccc(Nc4cncc5nccnc45)c3C)c2C)cc(F)c1CN[C@@H]1CCOC[C@@H]1O [Example 1.041]	< 10
COc1cc(-c2cccc(-c3cccc(Nc4cncc5nccnc45)c3C)c2C)cc(F)c1CN[C@H]1CCC(=O)NC1 [Example 1.042]	< 10
COc1cc(-c2cccc(-c3cccc(Nc4cncc5nccnc45)c3C)c2C)cc(F)c1CN[C@@H]1CNC(=O)C1 [Example 1.043]	< 10
COc1cc(-c2cccc(-c3cccc(NC(=O)c4cn(C)c(=O)n(C)c4=O)c3F)c2C)cc(F)c1CN[C@@H]1CNC(=O)C1 [Example 1.044]	10 to 1000
COc1cc(-c2cccc(-c3cccc(NC(=O)c4nn(C)c(=O)n(C)c4=O)c3C)c2C)cc(F)c1CNC1CNC(=O)NC1=O (stereo not shown) [Example 1.045]	10 to 1000
COc1cc(-c2cccc(-c3cccc(NC(=O)c4cn(C)c(=O)n(C)c4=O)c3Cl)c2C)cc(F)c1CN[C@@H]1CNC(=O)C1 [Example 1.047]	< 10
